Measured values: patent publication US12023390B2, “Isomerically pure 18F-labelled tetrahydrofolates” (MERCK PATENT GMBH, priority 2017, dated 2024)
“And” between values parts separate entries of the source, which are not always exact repeats. Identical values can stand only once. Values belong to the compound of their own block, whether it stands above or below them.

Tests used:
KB tumor-bearing mice = experiment: Biodistribution studies in KB tumor-bearing mice
RT16 (FR-α) = target: T1, RT16 (FR-α) (Homo sapiens, UniProt P15328); experiment: Cell uptake and internalization in FR-α transfected CHO cells (RT16); format: cell-based
T1 construct: expressed in transfected cells; host or cells: CHO cells (RT16)
Experimental: (§1) The uptake and internalization of the oxidized (^18F-AzaFol) and reduced ^18F-folates (6S-isomer and 6R-isomer of ^18F-5-Me-Aza-THF) in D4 and RT16 cells which express the FR-α and FR-β, […] was studied. Both cell lines were kindly provided by Larry Matherly Wayne State University, Detroit, U.S.; Golani et al., J Med Chem, 2016, 59, 7856.
The internalized fraction of the radiotracers reached 8-10% after 1 h and increased slightly up to 9-12% after 3 h incubation.

D4 (FR-β) = target: T2, D4 (FR-β) (Homo sapiens, UniProt P14207); experiment: Cell uptake and internalization in FR-β transfected CHO cells (D4); format: cell-based
T2 construct: expressed in transfected cells; host or cells: CHO cells (D4)
Experimental: as §1
When using D4 cells that express the FR-β, the uptake of ^18F-AzaFol and the 6S-isomer of the reduced radiotracer reached approximately 70% after 1 h incubation and 80% after 3 h incubation. The internalized fraction of ^18F-AzaFol and the 6S-isomer of the reduced version was 20% and 12%, respectively, after 1 h incubation. These numbers increased slightly when the incubation time was extended to 3 h. […] No change was observed after additional two hours of incubation.

[1] = Distribution coefficient (log D7.4), shake flask method; format: physicochemical; conditions: n-octanol / phosphate buffer pH 7.4, room temperature
[2] = Metabolite studies / in vivo stability (radio-UPLC of blood plasma, liver, urine); parameters: species or system mice; conditions: samples taken p.i.
Experimental: (§2) In order to investigate FR-specific cell uptake and internalization, cell uptake and internalization of 6R-[^18F]1 and 6S-[^18F]1 were carried out using FR-positive KB cells. Cell uptake increased constantly over time for both diastereoisomers resulting in an uptake of about 60% (calculated per 0.3 mg of protein) of total added radioactivity after 3 h of incubation at 37° C. (FIG. 22).
The folate radiotracer 6S/6R-[^18F]5 (1:1 ratio, 53.7-52.3 MBq; 0.62-1.15 nmol) were intravenously injected into mice in order to determine the in vivo stability of the tracers. […] Ice-cold methanol containing 10 mg/mL 2-mercaptoethanol and 0.025% (v/v) ammonium hydroxide was added to the blood plasma, homogenized liver and urine in order to precipitate the proteins.^6 After centrifugation, the supernatants of the blood plasma, liver and urine samples were analyzed by radio-UPLC (FIG. 4).

FR-positive KB cells = experiment: Cell uptake and internalization using FR-positive KB cells; format: cell-based
Experimental: as §2

FR-alpha = FR-alpha (Homo sapiens, UniProt P15328); experiment: Selectivity for FR-alpha versus oxidized folic acid derivative (summary statement)
Folate Receptor = Folate Receptor (Homo sapiens, UniProt P15328); conditions: cited from earlier work
[3] = KB tumor-bearing mice, 30 min p.i.
[4] = KB tumor-bearing mice, 30 min p.i., ratio
[5] = KB tumor-bearing mice, 60 min p.i.
[6] = KB tumor-bearing mice, 60 min p.i. & Folic Acid (100 μg 10 min prior)
[7] = KB tumor-bearing mice, 60 min p.i., ratio
[8] = KB tumor-bearing mice, 90 min p.i.
[9] = KB tumor-bearing mice, 90 min p.i., ratio
[10] = KB tumor-bearing mice, 90 min p.i., listed as 6S-form
[11] = KB tumor-bearing mice, 90 min p.i., listed as 6S-isomer

T2 sequence (P14207 17-230): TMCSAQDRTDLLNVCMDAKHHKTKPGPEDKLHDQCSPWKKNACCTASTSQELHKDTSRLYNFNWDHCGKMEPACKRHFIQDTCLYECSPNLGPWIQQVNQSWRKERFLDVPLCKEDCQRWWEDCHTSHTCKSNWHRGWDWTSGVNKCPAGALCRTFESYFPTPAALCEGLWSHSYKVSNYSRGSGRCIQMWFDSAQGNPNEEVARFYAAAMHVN
Chain of Folate Receptor (P15328 25-234): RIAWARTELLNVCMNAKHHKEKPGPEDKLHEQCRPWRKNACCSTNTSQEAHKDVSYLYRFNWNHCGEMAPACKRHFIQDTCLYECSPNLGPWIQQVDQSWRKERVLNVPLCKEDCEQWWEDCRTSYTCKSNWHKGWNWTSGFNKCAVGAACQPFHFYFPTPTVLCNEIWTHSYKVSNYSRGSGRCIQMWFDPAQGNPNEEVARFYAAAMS
Chain of FR-alpha (P15328 25-234, species assumed): as the sequence (P15328 25-234) above
T1 sequence (P15328 25-234): as above

Biodistribution: Blood (KB tumor-bearing mice; [3]): 1.52 ± 0.31 % IA/g
Biodistribution: Bone (KB tumor-bearing mice; [3]): 1.70 ± 0.13 % IA/g
Biodistribution: Feaces (KB tumor-bearing mice; [3]): 3.71 ± 2.34 % IA/g
Biodistribution: Gall Bladder (KB tumor-bearing mice; [3]): 20.0 ± 9.00 % IA/g
Biodistribution: Heart (KB tumor-bearing mice; [3]): 2.02 ± 0.22 % IA/g
Biodistribution: Intestines (KB tumor-bearing mice; [3]): 2.61 ± 0.65 % IA/g
Biodistribution: KB Tumor (KB tumor-bearing mice; [3]): 11.13±0.90 % IA/g and 11.1 ± 0.90 % IA/g
Biodistribution: Kidneys (KB tumor-bearing mice; [3]): 42.5 ± 2.73 % IA/g
Biodistribution: Liver (KB tumor-bearing mice; [3]): 8.10 ± 1.16 % IA/g
Biodistribution: Lung (KB tumor-bearing mice; [3]): 2.31 ± 0.42 % IA/g
Biodistribution: Muscle (KB tumor-bearing mice; [3]): 1.36 ± 0.25 % IA/g
Biodistribution: Salivary glands (KB tumor-bearing mice; [3]): 13.8 ± 2.06 % IA/g
Biodistribution: Spleen (KB tumor-bearing mice; [3]): 1.90 ± 0.34 % IA/g
Biodistribution: Stomach (KB tumor-bearing mice; [3]): 2.54 ± 0.56 % IA/g
Tu-to-blood (KB tumor-bearing mice; [4]): 7.41 ± 0.96
Tu-to-liver (KB tumor-bearing mice; [4]): 1.38 ± 0.16
Biodistribution: Kidneys (KB tumor-bearing mice; KB tumor-bearing mice, 30 min p.i., listed as 6S-form): 42.5±2.73 % IA/g
Biodistribution: Liver (KB tumor-bearing mice; KB tumor-bearing mice, 30 min p.i., listed as 6S-tracer): 8.10±1.16 % IA/g
Biodistribution: Blood (KB tumor-bearing mice; [5]): 1.26 ± 0.08 % IA/g
Biodistribution: Bone (KB tumor-bearing mice; [5]): 1.38 ± 0.14 % IA/g
Biodistribution: Feaces (KB tumor-bearing mice; [5]): 4.85 ± 1.95 % IA/g
Biodistribution: Gall Bladder (KB tumor-bearing mice; [5]): 16.6 ± 8.91 % IA/g
Biodistribution: Heart (KB tumor-bearing mice; [5]): 1.53 ± 0.15 % IA/g
Biodistribution: Intestines (KB tumor-bearing mice; [5]): 2.58 ± 0.42 % IA/g
Biodistribution: KB Tumor (KB tumor-bearing mice; [5]): 14.2 ± 1.91 % IA/g
Biodistribution: Kidneys (KB tumor-bearing mice; [5]): 37.5 ± 3.61 % IA/g
Biodistribution: Liver (KB tumor-bearing mice; [5]): 6.28 ± 0.66 % IA/g
Biodistribution: Lung (KB tumor-bearing mice; [5]): 2.04 ± 0.09 % IA/g
Biodistribution: Muscle (KB tumor-bearing mice; [5]): 1.29 ± 0.14 % IA/g
Biodistribution: Salivary glands (KB tumor-bearing mice; [5]): 13.8 ± 1.28 % IA/g
Biodistribution: Spleen (KB tumor-bearing mice; [5]): 1.57 ± 0.16 % IA/g
Biodistribution: Stomach (KB tumor-bearing mice; [5]): 1.84 ± 0.33 % IA/g
Biodistribution: Blood (KB tumor-bearing mice; [6]): 1.09 ± 0.28 % IA/g
Biodistribution: Bone (KB tumor-bearing mice; [6]): 0.49 ± 0.12 % IA/g
Biodistribution: Feaces (KB tumor-bearing mice; [6]): 8.42 ± 2.10 % IA/g
Biodistribution: Gall Bladder (KB tumor-bearing mice; [6]): 5.87 ± 0.45 % IA/g
Biodistribution: Heart (KB tumor-bearing mice; [6]): 0.50 ± 0.13 % IA/g
Biodistribution: Intestines (KB tumor-bearing mice; [6]): 4.34 ± 0.93 % IA/g
Biodistribution: KB Tumor (KB tumor-bearing mice; [6]): 2.11 ± 0.38 % IA/g
Biodistribution: Kidneys (KB tumor-bearing mice; [6]): 2.28 ± 0.95 % IA/g
Biodistribution: Liver (KB tumor-bearing mice; [6]): 4.76 ± 0.87 % IA/g
Biodistribution: Lung (KB tumor-bearing mice; [6]): 0.84 ± 0.20 % IA/g
Biodistribution: Muscle (KB tumor-bearing mice; [6]): 0.26 ± 0.06 % IA/g
Biodistribution: Salivary glands (KB tumor-bearing mice; [6]): 0.89 ± 0.26 % IA/g
Biodistribution: Spleen (KB tumor-bearing mice; [6]): 0.90 ± 0.24 % IA/g
Biodistribution: Stomach (KB tumor-bearing mice; [6]): 0.73 ± 0.32 % IA/g
Tu-to-blood (KB tumor-bearing mice; [7]): 11.3 ± 1.13
Tu-to-kidney (KB tumor-bearing mice; [7]): 0.38 ± 0.04
Tu-to-liver (KB tumor-bearing mice; [7]): 1.87 ± 0.96
Biodistribution: Blood (KB tumor-bearing mice; [8]): 1.16 ± 0.20 % IA/g
Biodistribution: Bone (KB tumor-bearing mice; [8]): 1.49 ± 0.30 % IA/g
Biodistribution: Feaces (KB tumor-bearing mice; [8]): 4.57 ± 1.98 % IA/g
Biodistribution: Gall Bladder (KB tumor-bearing mice; [8]): 11.4 ± 7.18 % IA/g
Biodistribution: Heart (KB tumor-bearing mice; [8]): 1.48 ± 0.17 % IA/g
Biodistribution: Intestines (KB tumor-bearing mice; [8]): 2.34 ± 0.39 % IA/g
Biodistribution: KB Tumor (KB tumor-bearing mice; [8]): 19.2 ± 4.16 % IA/g
Biodistribution: Kidneys (KB tumor-bearing mice; [8]): 42.3 ± 7.05 % IA/g
Biodistribution: Liver (KB tumor-bearing mice; [8]): 5.86 ± 1.11 % IA/g
Biodistribution: Lung (KB tumor-bearing mice; [8]): 2.08 ± 0.35 % IA/g
Biodistribution: Muscle (KB tumor-bearing mice; [8]): 1.24 ± 0.14 % IA/g
Biodistribution: Salivary glands (KB tumor-bearing mice; [8]): 21.4 ± 4.59 % IA/g
Biodistribution: Spleen (KB tumor-bearing mice; [8]): 1.82 ± 0.49 % IA/g
Biodistribution: Stomach (KB tumor-bearing mice; [8]): 1.69 ± 0.33 % IA/g
Tu-to-blood (KB tumor-bearing mice; [9]): 16.5 ± 0.59
Tu-to-liver (KB tumor-bearing mice; [9]): 3.30 ± 0.59
Biodistribution: Kidneys (KB tumor-bearing mice; [10]): 42.3±7.05 % IA/g
Biodistribution: Liver (KB tumor-bearing mice; [10]): 5.86±1.11 % IA/g
Biodistribution: Salivary glands (KB tumor-bearing mice; [10]): 21.4±4.59 % IA/g
Biodistribution: KB Tumor (KB tumor-bearing mice; [11]): 19.2±4.16 % IA/g
Biodistribution: Spleen (KB tumor-bearing mice; [11]): 1.82±0.49 % IA/g
Biodistribution: Liver (KB tumor-bearing mice; KB tumor-bearing mice, 90 min p.i., listed as S-isomer): 5.86±1.11 % IA/g
Specificity of tumor binding (KB tumor-bearing mice; blocking by pre-injection of folic acid): 89%
factor of increase of tumor-to-kidney ratio (KB tumor-bearing mice; from 30 min p.i. to 90 min p.i.): 1.7
uptake into RT16 cells (in words) (RT16 (FR-α)): significant uptake
uptake into D4 cells (in words) (D4 (FR-β); D4 (FR-β) cells): significant uptake
internalized fraction (D4 (FR-β); D4 cells, 1 h incubation): 12%
uptake (D4 (FR-β); D4 cells, 1 h incubation): approximately 70%
uptake (D4 (FR-β); D4 cells, 3 h incubation): ~80%
logD7.4 [1]: −4.6 ± 0.1
in vivo stability [2]: Only intact parent compounds were found
Compound: 6S-3′-aza-2′-[^18F]fluoro-5-MTHF [6S-[^18F]1]
PET/CT: KB tumor xenograft uptake (KB tumor xenografts; already 1 h p.i.): High KB tumor xenograft uptake
PET/CT: blocking studies, uptake in all FR-positive tissues (KB tumor xenografts; folic acid injected 10 minutes prior to radiotracer): remarkably reduced uptake
internalized activity (FR-positive KB cells; 37° C.): ~16%
cell uptake (% of total added radioactivity) (FR-positive KB cells; 3 h incubation at 37° C., calculated per 0.3 mg of protein): about 60%

fold higher selectivity for FR-alpha than the respective oxidized folic acid derivative (FR-alpha): 50 fold
Compound: CN1c2c(nc(N)[nH]c2=O)NCC1CNc1ccc(C(=O)N[C@@H](CCC(=O)O)C(=O)O)c([18F])n1 (some centres unmarked) [3′-aza-2′-[^18]fluoro-5-methyltetrahydrofolate]

Compound: Nc1nc2ncc(CNc3ccc(C(=O)N[C@H](CCC(=O)NC[C@H](N)C(=O)N[C@@H](CC(=O)O)C(=O)N[C@@H](CS)C(=O)O)C(=O)O)cc3)nc2c(=O)[nH]1 [EC20]
Kd (Folate Receptor): 12 nM
